What was measured:
orthotopic BP tumors = assay: BP (Brca1−/− Trp53−/−) orthotopic tumor growth in FVB mice; type: in vivo, mouse
Method: Primary mammary tumor cells for orthotopic injection were resuspended in serum-free DMEM containing 40% matrigel (Corning). […] Tumor growth was examined by measuring the greatest longitudinal diameter (length) and the greatest transverse diameter (width) with digital calipers, and tumor volume was calculated by use of the modified ellipsoid formula (0.52×length×width2). Tumors were measured 2-3 times a week. All tumor measurements within single cohorts were performed by the same researcher. Tumor-bearing mice were randomized prior to start of treatment. Drug treatments were started when mean tumor volumes approximated 50-100 mm3. Mice were euthanized by CO2 inhalation when tumor volumes met humane endpoints described in the IACUC (20 mm diameter) protocols or upon severe health deterioration.
For intratumoral injection (i.t.), 250 μg DMXAA (approximately 10 mg/kg body weight) was administered once per week for 3 doses. For i.p. injections, DMXAA was administered at a dose of 10 mg/kg body weight once weekly and terminated if tumor size exceeded 600 mm3. […] Anti-mouse CSF1R antibody (CS7, Eli Lilly) was dosed at 40 mg/kg via i.p. every 3 days.

bone marrow-derived DCs = assay: STING pathway activation in DCs co-cultured with BP tumor cells; type: cell-based, mouse
Method: For flow cytometry analyses of tumor and TDLN samples, single-cell suspensions were obtained as described above (Tissue Digestion). Cells were stained in cold FACS buffer (PBS containing 0.2% BSA and 5 mM EDTA) with LIVE/DEAD Fixable Aqua Dead Cell Stain (Thermo Fisher) for 30 min on ice, followed by blocking with anti-CD16/32 (BioLegend) for 20 min on ice. Cells were then incubated in FACS buffer for 30 min on ice with antibodies specific to CD45 (clone 30-F11, BioLegend), TCR β chain (clone H57-597, BioLegend), CD38 (clone 145-2C11, BioLegend), CD4 (clone RM4-5, BioLegend), CD8a (clone 53-6.7, BioLegend), PD-1 (clone 29F.1A12, BioLegend), CD44 (clone IM7, BioLegend), CD62L (clone MEL-14, BioLegend), IFN-γ (clone XMG1.2, BioLegend), TNF-α (clone MP6-XT22, BioLegend), Granzyme B (clone NGZB, eBioscience), CD11c (clone N418, BioLegend), I-A/I-E (clone M5/114.15.2, BioLegend), CD80 (clone 16-10A1, BioLegend), CD86 (clone GL-1, BioLegend), CD103 (clone 2E7, BioLegend), CD11b (M1/70, BioLegend), F4/80 (clone BM8, BioLegend), phospho-TBK1 (Ser172) (clone D52C2, Cell Signaling Tech.) or phospho-IRF-3 (Ser396) (clone D601M, Cell Signaling Tech.). For intracellular staining, Foxp3/Transcription Factor Staining Buffer Set (eBioscience, #00-5523-00) was used for fixation and permeabilization. […] All data were analyzed using FlowJo software. […]

BP tumor cells = assay: DNA damage in BP tumor cells (cytosolic dsDNA staining, γ-H2AX flow cytometry); type: cell-based, mouse
Method: For flow cytometry analyses of tumor and TDLN samples, single-cell suspensions were obtained as described above (Tissue Digestion). Cells were stained in cold FACS buffer (PBS containing 0.2% BSA and 5 mM EDTA) with LIVE/DEAD Fixable Aqua Dead Cell Stain (Thermo Fisher) for 30 min on ice, followed by blocking with anti-CD16/32 (BioLegend) for 20 min on ice. Cells were then incubated in FACS buffer for 30 min on ice with antibodies specific to CD45 (clone 30-F11, BioLegend), TCR β chain (clone H57-597, BioLegend), CD38 (clone 145-2C11, BioLegend), CD4 (clone RM4-5, BioLegend), CD8a (clone 53-6.7, BioLegend), PD-1 (clone 29F.1A12, BioLegend), CD44 (clone IM7, BioLegend), CD62L (clone MEL-14, BioLegend), IFN-γ (clone XMG1.2, BioLegend), TNF-α (clone MP6-XT22, BioLegend), Granzyme B (clone NGZB, eBioscience), CD11c (clone N418, BioLegend), I-A/I-E (clone M5/114.15.2, BioLegend), CD80 (clone 16-10A1, BioLegend), CD86 (clone GL-1, BioLegend), CD103 (clone 2E7, BioLegend), CD11b (M1/70, BioLegend), F4/80 (clone BM8, BioLegend), phospho-TBK1 (Ser172) (clone D52C2, Cell Signaling Tech.) or phospho-IRF-3 (Ser396) (clone D601M, Cell Signaling Tech.). For intracellular staining, Foxp3/Transcription Factor Staining Buffer Set (eBioscience, #00-5523-00) was used for fixation and permeabilization. For cytokine analysis, cells were stimulated with Leukocyte Activation Cocktail with protein transport inhibitor Brefeldin A (BD Biosciences, #550583) at 37° C. for 4 hours prior to the staining. Analysis of ϵ-HA2X (Ser139) was performed according to manufacturer's instructions. Briefly, ice-cold 70% ethanol (Decon) was added dropwise to the cell pellet while vortexing. Cells were then incubated at −20° C. for 1 hour and washed three times with cold staining buffer. […] All data were analyzed using FlowJo software.
BRCA1-deficient tumor cells were cultured on glass coverslips in 6-well plates. […] Fluorescence intensity of cytosolic dsDNA were analyzed using ImageJ/Fiji software as described in Pantelidou C, et al. Cancer Discov 2019; 9 (6): 722-37.

human BMDMs = assay: Polarization of human BMDMs cultured in CM from ovarian PDXs; type: cell-based
Method: For ex vivo culture of human macrophages, human BMDMs were generated from bone marrow mononuclear cells (BMMs) (CAT #70001) obtained from […] Technologies. Briefly, BMMs were cultured in DMEM containing 10% FBS, 55 μM 2-Mercaptoethanol (CAT #21985023, Thermo Fisher) and 50 ng/ml M-CSF for 5-7 days with media replacement every 3 days to obtain matured macrophages (BMDMs). […] Flow cytometry analysis was preformed to analyze the phenotypes of macrophages for both mouse and human BMDMs.

[1] = olaparib 50 mg/kg i.p. q.d., DMXAA 10 mg/kg intratumoral once per week, 3 doses, start around 100 mm3, FIG. 9A

| Compound | BP tumor growth (orthotopic BP tumors; [1]) | activation of STING pathway in co-cultured DCs (bone marrow-derived DCs; BP cells treated with CM of DMXAA-pre-treated TEMs, then olaparib, FIG. 7I) | BP cells' DNA damage (gH2AX) in response to olaparib (BP tumor cells; BP cells treated with CM of DMXAA-pre-treated TEMs, FIG. 7I) | M2-like macrophage polarization induced by ovarian PDXs (human BMDMs; MSA-2 added, FIG. 25E) | BP tumor growth (orthotopic BP tumors; olaparib 50 mg/kg i.p. daily, FIG. 1C) | STING pathway activation (p-TBK1+ p-IRF3+) in DCs (bone marrow-derived DCs; DCs co-cultured 24 hours with olaparib-treated BP cells, FIG. 5I) | cytosolic dsDNA (BP tumor cells; 5 μM olaparib, two days, FIG. 5B) | γ-H2AX (BP tumor cells; olaparib, FIG. 5C) | M2-like polarization induced by ovarian PDXs (human BMDMs; CM of olaparib-treated PDXs, FIG. 25C) |
| --- | --- | --- | --- | --- | --- | --- | --- | --- | --- |
| Cc1ccc2c(=O)c3cccc(CC(=O)O)c3oc2c1C [DMXAA, 5,6-dimethyl-xanthenone-4-acetic acid] | modest tumor growth inhibition | restored | restored |  |  |  |  |  |  |
| COc1cc2cc(C(=O)CCC(=O)O)sc2cc1OC [MSA-2] |  |  |  | reversed |  |  |  |  |  |
| O=C(c1cc(Cc2n[nH]c(=O)c3ccccc23)ccc1F)N1CCN(C(=O)C2CC2)CC1 [olaparib] | modest tumor growth inhibition |  |  |  | modest | activated the STING pathway in DCs | induced accumulation of cytosolic dsDNAs | two-fold increase | further enhance |
